From patent publication US20090253709A1 (NATIONAL DEFENSE MEDICAL CENTER, priority 2008, published 2009)
Like-named read-outs stand apart in the source and are kept apart here.

What was measured:
MTT assay in H1299 cells = format: cell-based; conditions: human, H1299 cells (H1299/PhTERT-driven SEAP reporter system), H1299, read-out: MTT (Inhibition μM ± SD); for viability at 24 h, 1 µM: compound concentration 1 μM; for viability at 24 h, 10 µM: compound concentration 10 μM; for viability at 24 h, 100 µM: compound concentration 100 μM
Protocol: H1299 is a non-small cell lung cancer cell line with telomerase activity. The cell extract of H1299 cell lines can be used for selecting the telomerase activity inhibitors in vitro and the telomerase activity-inhibited substances in vivo. H1299 cell line was incubated with RPMI 1640 medium supplemented with 10% of fetal bovine serum (FBS). A total of 2×10^3 […] cells were seeded in the 96-well cell culture plate, and incubated with DMEM (GIBCO®)/glucose mixture and Medium 199 (GIBCO®)/10% FBS/1 mM sodium pyruvate (GIBCO®)/4 mM L-glutamine (GIBCO®) mixture at a ratio of 4:1 at 37° C. for 24 hours. […] After 48 hours of drug treatment, the cultured medium were collected for performing the analysis of SEAP activity. The cells were washed with 1×PBS once immediately, and the MTT assay was performed to compare the compounds with the relative toxicity or the influence to the proliferation and activity. Mitochondria is the place for cellular respiration, and there are many reductive reactions catalyzed by dehydrogenases. MTT is a water-soluble yellow compound, and the […] will be formed after reduction. This crystal can be dissolved in the organic solvent, and has high absorbance at the wavelength of 570 nm. The higher cellular activity or more cell numbers, the more generated crystal violets. Therefore, the cellular activity and cell number can be obtained by the MTT assay. MTT solution was prepared by dissolving MTT powder in PBS solution to achieve 5 mg/ml, filtrated and stored at 4° C. Lysis buffer contained 20% (w/v) of SDS in 50% of N,N-dimethylformamide (DMF, Riedel-deHaën). After the cells were incubated in the 96-well culture plate, the original medium was discarded, 100 μl of the fresh serum-free medium per well and 25 μl of MTT solution per well were added in respectively, and the cells were further incubated in the CO2 incubator at 37° C. for 4 hours. Then, 100 μl of lysis buffer per well was added in and incubated overnight in the CO2 incubator at 37° C. The absorbance at 570 nm was determined by the ELISA reader. The selection of telomerase inhibitors of the anthraquinone compounds provided in the present invention was performed by the […]-driven SEAP system. SEAP is the communication gene in this drug selection model. The SEAP inhibition was shown as follows. […] Subsequently, the linear slope of absorbance to the measuring time was calculated, and the variance of absorbance at 405 nm per minute was represented and compared with the SEAP-producing result of drug-untreated H1299 cells. In addition, the influence of the cell-treated drug solution to the cellular proliferation and the drug toxicity to the cells were considered, and the cellular growth was evaluated by the MTT assay. The drug-treated cells were analyzed by the SEAP assay and the data analysis of MTT assay at the same time. Both results were compared so as to delete the influence of cell number or the activity to SEAP, and the dose-dependent phenomenon could be anticipated in the range of drug concentration designed by the laboratory. […] Since the chemically-synthetic drugs have colors thereon, the SEAP value of drug-treatment without cells was also determined to be the background value which was deducted while treating with the drugs. The candidate drug for inhibiting telomerase on the hTERT gene expression level was evaluated and anticipated.

hTERT expression = experiment: SEAP assay, H1299/PhTERT-driven SEAP system; format: cell-based, human; conditions: for activity at 1 µM / activity at 10 µM / activity at 100 µM: Homo sapiens
Text: The condition of the cells for selecting the telomerase inhibitor must be the cancer cells with telomerase activity. H1299 is a non-small cell lung cancer cell line with telomerase activity. The hTERT communication gene linked behind PhTERT which is located at the fifth chromosome of H1299 cell can be expressed; however, this expression is hard to detect. Therefore, the plasmid having the SEAP communication gene linked behind PhTERT was transfected into H1299 cells. Under the identical condition, after PhTERT was activated, the SEAP communication gene linked behind the plasmid was also activated. This gene could be detected by this analytic method while expressing.
If additionally added reagent can inhibit PhTERT, the linked SEAP communication gene will not be expressed, and the hTERT communication gene linked behind PhTERT at the fifth chromosome will not be expressed. […]
The cellular medium after the cellular incubation was transferred into the eppondorf tube, and the activity of endogeneous alkaline phosphatase was inactivated at 65° C. for 10 minutes. After centrification, the mixture was obtained by mixing 50 μl of the supernatant with the equal volume of the SEAP buffer. The mixture and the substrate (120 mM of p-nitrophenylphosphate) were preheated at 37° C. for 10 minutes respectively, and the mixture and the substrate were mixed at a ratio of 1:10 and reacted at 37° C. The absorbance of visible light at 405 nm was determined at the appropriate time intervals, and the enzymatic activity of SEAP was represented by the speed of the increasing absorbance at 405 nm.
The selection of telomerase inhibitors of the anthraquinone compounds provided in the present invention was performed by the H1299/PhTERT-driven SEAP system. SEAP is the communication gene in this drug selection model. The SEAP inhibition was shown as follows. The quantitative cellular medium obtained after the 24-hour drug-treatment and the identical inactivation was reacted with the quantitative SEAP substrate, and the absorbance at 405 nm was detected for 5 time intervals. Subsequently, the linear slope of absorbance to the measuring time was calculated, and the variance of absorbance at 405 nm per minute was represented and compared with the SEAP-producing result of drug-untreated H1299 cells. In addition, the influence of the cell-treated drug solution to the cellular proliferation and the drug toxicity to the cells were considered, and the cellular growth was evaluated by the MTT assay. The drug-treated cells were analyzed by the SEAP assay and the data analysis of MTT assay at the same time. Both results were compared so as to delete the influence of cell number or the activity to SEAP, and the dose-dependent phenomenon could be anticipated in the range of drug concentration designed by the laboratory.
In the preliminary selection, the highest concentration was 1000 μM, and 10-fold serial dilutions were done. Therefore, the final concentrations for treating cells were 1 μM, 10 μM and 100 μM, and the drug concentrations were repeated for 5 times. Since the chemically-synthetic drugs have colors thereon, the SEAP value of drug-treatment without cells was also determined to be the background value which was deducted while treating with the drugs. The candidate drug for inhibiting telomerase on the hTERT gene expression level was evaluated and anticipated.

[1] = NCI-H1299, H1299, compound concentration 1 μM, read-out: SEAP (Inhibition μM ± SD)
[2] = NCI-H1299, H1299, compound concentration 10 μM, read-out: SEAP (Inhibition μM ± SD)
[3] = NCI-H1299, H1299, compound concentration 100 μM, read-out: SEAP (Inhibition μM ± SD)
[4] = NCI-H1299, read-out: SEAP (Inhibition μM ± SD)

Structure (SMILES) | viability at 24 h, 1 µM (MTT assay in H1299 cells) [%] | viability at 24 h, 10 µM (MTT assay in H1299 cells) [%] | viability at 24 h, 100 µM (MTT assay in H1299 cells) [%] | activity at 1 µM (hTERT expression; [1]) [%] | activity at 10 µM (hTERT expression; [2]) [%] | activity at 100 µM (hTERT expression; [3]) [%] | SEAP (telomerase inhibition) (hTERT expression; low concentration (1 μM)) [%] | activity at 1 µM (hTERT expression; [4]) [%] | activity at 10 µM (hTERT expression; [4]) [%] | activity at 100 µM (hTERT expression; [4]) [%]
CN1CCN(CC(=O)Nc2ccc3c(c2)C(=O)c2cc(NC(=O)CN4CCN(C)CC4)ccc2C3=O)CC1 [Compound 11, 2,7-Bis[2-(N-methylpiperazino)acetamido]anthraquinone] | 90 ± 14 | 71 ± 4 | 37 ± 6 | 76 ± 21 | 50 ± 11 | 23 ± 9 | – | – | – | –
CC(C)CNCC(=O)Nc1ccc2c(c1)C(=O)c1cc(NC(=O)CNCC(C)C)ccc1C2=O [Compound 14, 2,7-Bis[2-(isobutylamino)acetamido]anthraquinone] | 108 ± 8 | 39 ± 10 | 11 ± 5 | 73 ± 20 | 38 ± 15 | 26 ± 10 | – | – | – | –
CN1CCN(CCC(=O)Nc2ccc3c(c2)C(=O)c2cc(NC(=O)CCN4CCN(C)CC4)ccc2C3=O)CC1 [Compound 23, 2,7-Bis[3-(N-methylpiperazino)propionamido]anthraquinone] | 95 ± 18 | 80 ± 15 | 39 ± 6 | 75 ± 16 | 52 ± 11 | 21 ± 10 | – | – | – | –
O=C(Cc1ccccc1)Nc1ccc2c(c1)C(=O)c1cc(NC(=O)Cc3ccccc3)ccc1C2=O [Compound 30, 2,7-Bis(phenylacetamido)anthraquinone] | 106 ± 12 | 96 ± 17 | 75 ± 22 | 97 ± 18 | 91 ± 21 | 80 ± 17 | 70±6 | – | – | –
Nc1ccc2c(c1)C(=O)c1cc(N)ccc1C2=O [Compound 2, 2,7-Diaminoanthraquinone] | 90 ± 17 | 80 ± 16 | 65 ± 10 | 87 ± 10 | 75 ± 8 | 63 ± 12 | – | – | – | –
O=C1c2ccc(NC(=O)C3CCCCC3)cc2C(=O)c2cc(NC(=O)C3CCCCC3)ccc21 [Compound 34, 2,7-Bis(cyclohexanecarbonamido)anthraquinone] | 90 ± 3 | 63 ± 13 | 52 ± 16 | 96 ± 5 | 93 ± 3 | 80 ± 2 | – | – | – | –
CCNCC(=O)Nc1ccc2c(c1)C(=O)c1cc(NC(=O)CNCC)ccc1C2=O [Compound 10, 2,7-Bis[2-(ethylamino)acetamido]anthraquinone] | 52 ± 11 | 24 ± 5 | 3 ± 4 | – | – | – | – | 60 ± 10 | 35 ± 5 | 34 ± 3
CCCNCC(=O)Nc1ccc2c(c1)C(=O)c1cc(NC(=O)CNCCC)ccc1C2=O [Compound 9, 2,7-Bis[2-(propylamino)acetamido]anthraquinone] | 89 ± 15 | 54 ± 11 | 14 ± 10 | 73 ± 17 | 44 ± 16 | 24 ± 10 | – | – | – | –
O=C1c2ccc([N+](=O)[O-])cc2C(=O)c2cc([N+](=O)[O-])ccc21 [Compound 1, 2,7-dinitroanthraquinone] | 97 ± 15 | 95 ± 8 | 69 ± 10 | 87 ± 13 | 85 ± 21 | 62 ± 8 | – | – | – | –
O=C(CCN1CCCC1)Nc1ccc2c(c1)C(=O)c1cc(NC(=O)CCN3CCCC3)ccc1C2=O [Compound 18, 2,7-Bis[3-(pyrrolidino)propionamido]anthraquinone] | 87 ± 15 | 54 ± 7 | 12 ± 10 | 73 ± 11 | 29 ± 15 | 17 ± 13 | – | – | – | –
O=C(Nc1ccc2c(c1)C(=O)c1cc(NC(=O)c3ccccc3)ccc1C2=O)c1ccccc1 [Compound 29, 2,7-Bis(benzoamido)anthraquinone] | 71 ± 24 | 47 ± 13 | 41 ± 30 | 104 ± 10 | 92 ± 11 | 85 ± 19 | – | – | – | –
O=C(CN1CCNCC1)Nc1ccc2c(c1)C(=O)c1cc(NC(=O)CN3CCNCC3)ccc1C2=O [Compound 12, 2,7-Bis[2-(piperazino)acetamido]anthraquinone] | 88 ± 19 | 85 ± 13 | 88 ± 11 | 89 ± 17 | 72 ± 20 | 60 ± 12 | – | – | – | –
CCN(CC)CC(=O)Nc1ccc2c(c1)C(=O)c1cc(NC(=O)CN(CC)CC)ccc1C2=O [Compound 4, 2,7-Bis[2-(diethylamino)acetamido]anthraquinone] | 101 ± 8 | 47 ± 7 | 25 ± 3 | 90 ± 3 | 61 ± 11 | 37 ± 10 | – | – | – | –
CN(C)CCC(=O)Nc1ccc2c(c1)C(=O)c1cc(NC(=O)CCN(C)C)ccc1C2=O [Compound 20, 2,7-Bis[3-(dimethylamino)propionamido]anthraquinone] | 1 ± 104 | 53 ± 13 | 1 ± 1 | – | – | – | – | 5 ± 94 | 13 ± 30 | –
O=C(CCCCl)Nc1ccc2c(c1)C(=O)c1cc(NC(=O)CCCCl)ccc1C2=O [Compound 25, 2,7-Bis(4-chlorobutyramido)anthraquinone] | 84 ± 18 | 40 ± 2 | 22 ± 2 | 88 ± 19 | 86 ± 13 | 78 ± 17 | – | – | – | –
